Values quoted from earlier work, collected in publication PMC12308805, “Ultrahigh-Throughput Virtual Screening Strategies against PPI Targets: A Case Study of STAT Inhibitors” (Journal of Chemical Information and Modeling, 2025).

tested on: STAT5b; parameters: method as in literature; settings: training set for retrospective virtual screening with 6MBW; known actives for STAT5b found in the literature; ref literature; cited from earlier work

Row | Structure (SMILES) | Type (Active / decoy)
1 | CC(C)(C)c1cc(CN(C(=O)CN(Cc2ccc(Cl)cc2)S(=O)(=O)c2c(F)c(F)c(F)c(F)c2F)c2ccc(C(=O)O)cc2)cc(C(C)(C)C)c1 [AC-4-130, CC(C)(C)c1cc(CN(C(=O)CN(Cc2ccc(Cl)cc2)S(=O)(=O)c2c(F)c(F)c(F)c(F)c2F)c2ccc(C(=O)O)cc2)cc(C(C)(C)C)c1] | Active
2 | COC(=O)c1cccc(-c2ccc(-c3ccc(CN(C(=O)CN(C)S(=O)(=O)c4ccc(C)cc4)c4ccc(C(=O)O)c(O)c4)cc3)cc2)c1 [BP-1-075, COC(=O)c1cccc(-c2ccc(-c3ccc(CN(C(=O)CN(C)S(=O)(=O)c4ccc(C)cc4)c4ccc(C(=O)O)c(O)c4)cc3)cc2)c1] | Active
3 | CC(C)(C)c1cc(CN(C(=O)CN(Cc2ccc(Cl)cc2)S(=O)(=O)c2c(F)c(F)c(F)c(F)c2F)c2ccc(C(=O)O)c(O)c2)cc(C(C)(C)C)c1 [13a, CC(C)(C)c1cc(CN(C(=O)CN(Cc2ccc(Cl)cc2)S(=O)(=O)c2c(F)c(F)c(F)c(F)c2F)c2ccc(C(=O)O)c(O)c2)cc(C(C)(C)C)c1] | Active
4 | CN(CC(=O)N(Cc1ccc(C2CCCCC2)cc1)c1ccc(C(=O)O)c(O)c1)S(=O)(=O)c1ccc(-c2ccccc2)cc1 [BP-1-107, CN(CC(=O)N(Cc1ccc(C2CCCCC2)cc1)c1ccc(C(=O)O)c(O)c1)S(=O)(=O)c1ccc(-c2ccccc2)cc1] | Active
5 | Cc1cc(C)c(S(=O)(=O)N(C)CC(=O)N(Cc2ccc(C3CCCCC3)cc2)c2ccc(C(=O)O)c(O)c2)c(C)c1 [BP-1-108, Cc1cc(C)c(S(=O)(=O)N(C)CC(=O)N(Cc2ccc(C3CCCCC3)cc2)c2ccc(C(=O)O)c(O)c2)c(C)c1] | Active
